These results are taken from patent US7662864B2, “Solution polymerization processes to prepare a polymer that degrades to release a physiologically active agent” (Rutgers, The State University of New Jersey, priority 2003, dated 2010).

Where two headings read alike, the source gives them in different places.

The nature of data set [1]: Plasma diflunisal in rats after subcutaneous polydiflunisal microspheres. In kind it is in vivo. Particulars: single oral dose. An excerpt:
Processes for making nanoparticle formulations are also known in the art, and need not be fully described in this patent. The surface eroding property of polymers such as polydiflunisal makes for solid, non-porous particles, e.g. nano- and micro-spheres, useful for sustained drug delivery, and their release duration may be controlled by varying particle diameter, e.g. larger microparticles biodegrade more slowly than smaller ones. Nano- and microparticles for pharmaceutical formulations may be designed to deliver an agent(s) or compound(s) incorporated into the polymer backbone and optionally an agent(s) blended, appended to, or dispersed in the polymer. […] Microparticle formulations of about 1, 2, 5, 7.5, 10, 25, 50 to about 10, 15, 30, 50, 75, 100, 250 μm are suitable for use in a pharmaceutical, veterinary or other type of formulations. Similarly, nanoparticle formulations may be administered for various applications, having a particle size about 1, 2, 5, 10 to about 15, 20, 30, 50, 100, 250, 500 nm, or various ranges between any two of these values. […] While the injection of a drug or biological agent carried by a polymer of the invention, e.g. a polyNSAID, may be expected to generate significant drug, e.g. NSAID, concentrations in tissues near the injection site, their systemic levels in most cases will remain less than about […], which are far below therapeutic levels. […]

The conditions of data set [2]: cited from earlier work.
For data set [3] the following is noted: cited from earlier work; for Plasma Levels (Anti-Inflammatory Effectiveness): Clinical Use.
In data set [4] the test system is chronically-inflamed tissue. Particulars: cited from earlier work.
Data set [5] relates to Rat. Conditions: in vivo; cited from earlier work.

For `O=C(O)c1cc(-c2ccc(F)cc2F)ccc1O` [Diflunisal, 5-(2,4-difluorophenyl)-salicylic acid], in data set [1], the “course of drug level” value is on record as “declined rapidly”. Besides, in data set [2], the “Water Solubility” value is listed as “Very Low”. In addition, in data set [3], the “Plasma Levels (Anti-Inflammatory Effectiveness)” value was 50 to 190 µg/mL. In data set [3] (in vivo), the “No. Metabolites” value is given as 2; the Plasma half-life was 8 to 12 h; the “Where Metabolized” value is “Liver, Intestine”.
Turning to `O=C(O)c1ccccc1O` [Salicylic Acid], the “Water Solubility” value in data set [2] is given as “High”. The “Plasma Levels (Anti-Inflammatory Effectiveness)” value in data set [3] is 150 to 300 µg/mL.
On to `CN1CC[C@]23c4c5ccc(O)c4O[C@H]2[C@@H](O)C=C[C@H]3[C@H]1C5` [morphine], for which the results for the pain relief result in data set [4] (1 mg injected into chronically-inflamed gum tissue) and in data set [4] (3 mg intra-articular injection in RA patients) were “profound pain relief” and “pain relief similar to that of 4 mg dexamethasone”, respectively.
As for `O=C(O)CCCCCCCCC(=O)O` [Sebacic Acid], in data set [5], the “Rat Oral LD50” value is recorded as 14,470 mg/kg.
